Experimental data: patent publication US8563564B2, “Composition for skin external application containing gallocatechin gallate for moisturizing effect on the skin” (priority 2005, dated 2013)

Tests used:
PPAR-α [1] = assay: PPAR-α activation capability, One-Factor-At-A-Time reporter gene (Dual-Luciferase) assay in CV-1 cells; assay type: cell-based; details: ratio based on the negative control, mean of three tests
Excerpt: (§1) One of the known methods for determining PPAR activation by observing PPAR activation/inactivation is reporter gene assay (Kliewer et. al., Nature, 1992, 358: 771-774). The reporter gene assay includes cloning a base sequence containing a promoter of interest and reporter genes, and injecting the base sequence into eukaryotic cells to activate transcription and to control the expression of a protein. Herein, protein expression increases as the promoter is activated. The reporter gene used for the first time is CAT (chloramphenicol acetyltransferase) gene. Recently, luciferase gene has been used widely. In the present invention, a Dual-Luciferase Reporter Assay System Kit available from Promega Co. was used. The following test was carried out to determine PPAR-α activation capability. CV-1 cells (ATCC CCL 70), i.e. monkey kidney epithelial cell line, were subcultured in a DMEM medium containing 10% bovine fetal serum treated with charcoal/dextrin. A phenol red-free medium was used to avoid the effect of estrogen upon phenol red. As plasmids, used were plasmids having PPRE (PPARs responsive element) as a promoter, followed by firefly luciferase genes as a reporter, the PPRE being activated by PPAR- (gene-containing PPAR- and ligand-bound PPAR-) bound next to the universal promoter expressed under general culture conditions, and a reference plasmid to which renilla luciferase genes were bound. CV-1 cells were plated on a 24-well microtiter plate at a concentration of 5×10^4 cells per well and cultured for 24 hours. Then, the above three types of plasmid genes were subjected to transient transfection by using a TransFast Kit available from Promega Co. After the cultured product was washed with PBS (phosphate buffered saline) once, the product was treated with a suitable concentration of sample materials, cultured again for 24 hours, and washed with PBS twice. Next, the cells were lysed with PLB (passive lysis buffer, Promega) once, and determined for luciferase activity by using a Dual-Luciferase Reporter Assay System Kit (Promega) in the samples and the controls. In this test, as a positive control, Wy14643 known as the strongest PPAR-α ligand was used. As negative controls, DMSO used to dissolve the samples and non-treated group were used. Each reported value was calculated as a ratio based on the negative control. The results are shown in the following Table 1, wherein each value is the mean value obtained after carrying out the test three times.

PPAR-α [2] = assay: PPAR-α activation capability of GCG/theobromine/quercetin combinations, response surface methodology (central composite design); assay type: cell-based
Excerpt: as §1, with “CV-1” for “One of the known methods for determining PPAR activation by observing PPAR activation/inactivation is reporter gene assay (Kliewer et. al., Nature, 1992, 358: 771-774). The reporter gene assay includes cloning a base sequence containing a promoter of interest and reporter genes, and injecting the base sequence into eukaryotic cells to activate transcription and to control the expression of a protein. Herein, protein expression increases as the promoter is activated. The reporter gene used for the first time is CAT (chloramphenicol acetyltransferase) gene. Recently, luciferase gene has been used widely. In the present invention, a Dual-Luciferase Reporter Assay System Kit available from Promega Co. was used. The following test was carried out to determine PPAR-α activation capability. CV-1”, “times. […] When using RSM, it is possible to understand the level of an independent parameter where a response value is optimized, to estimate the effect of an independent parameter upon response parameters via estimation of a functional relationship between each independent parameter and dependent parameter, and to determine optimized experimental conditions. […]” for “times.”

Molecule | PPAR-α Activation (PPAR-α [1]; 10 uM) | PPAR-α Activation (PPAR-α [1]; 100 uM) | also measured
Epigallocatechin gallate [(−) EGCG] | 1.0 | 1.5 | 
C[C@@H]1O[C@@H](OC[C@H]2O[C@@H](Oc3c(-c4ccc(O)c(O)c4)oc4cc(O)cc(O)c4c3=O)[C@H](O)[C@@H](O)[C@@H]2O)[C@H](O)[C@H](O)[C@H]1O [Rutin hydrate] | 1.6 | 1.3 | 
Oc1cc(O)c2c(c1)O[C@H](c1ccc(O)c(O)c1)[C@@H](O)C2 [(+) CA] | 1.5 | 1.4 | 
Cn1c(=O)c2[nH]cnc2n(C)c1=O [Theophylline] | 1.4 | 1.7 | 
O=C(O[C@@H]1Cc2c(O)cc(O)cc2O[C@H]1c1cc(O)c(O)c(O)c1)c1cc(O)c(O)c(O)c1 [(−) GCG, gallocatechin gallate] | 1.1 | 2.3 | fold (PPAR-α activation) (PPAR-α [2]; GCG 100, theobromine 0, quercetin 0): 1.191 fold
Oc1cc(O)c2c(c1)O[C@@H](c1ccc(O)c(O)c1)[C@@H](O)C2 [(+) EC] | 1.3 | 1.2 | 
Cn1cnc2c1c(=O)[nH]c(=O)n2C [Theobromine] | 2.2 | 4.5 | fold (PPAR-α activation) (PPAR-α [2]; GCG 0, theobromine 100, quercetin 0): 1.905 fold
Cn1c(=O)c2c(ncn2C)n(C)c1=O [Caffeine] | 1.3 | 1.6 | 
O=c1c(O)c(-c2ccc(O)cc2)oc2cc(O)cc(O)c12 [Kaempferol] | 1.7 | 1.4 | 
Cc1cccc(Nc2cc(Cl)nc(SCC(=O)O)n2)c1C [Positive Control, Wy14643] | 3.8 |  | PPAR-α Activation (PPAR-α [1]; 0.1 uM): 1.5; PPAR-α Activation (PPAR-α [1]; 1 uM): 2.6
O=C(O[C@@H]1Cc2c(O)cc(O)cc2O[C@@H]1c1ccc(O)c(O)c1)c1cc(O)c(O)c(O)c1 [(−) ECG] | 1.1 | 1.6 | 
O=C(O)c1cc(O)c(O)c(O)c1 [Gallic acid] | 1.3 | 1.7 | 
O=C(O)[C@]1(O)C[C@@H](O)[C@@H](O)[C@H](O)C1 [Quinic acid] | 1.3 | 1.7 | 
Oc1cc(O)c2c(c1)O[C@@H](c1cc(O)c(O)c(O)c1)[C@H](O)C2 [(−) GC] | 1.1 | 1.0 | 
Oc1cc(O)c2c(c1)O[C@H](c1ccc(O)c(O)c1)[C@H](O)C2 [(−) EC] | 1.2 | 1.2 | 
O=c1c(O)c(-c2ccc(O)c(O)c2)oc2cc(O)cc(O)c12 [Quercetin] | 1.7 | 2.3 | fold (PPAR-α activation) (PPAR-α [2]; GCG 0, theobromine 0, quercetin 100): 1.3 fold
CCNC(=O)CC[C@H](N)C(=O)O [Theanine] | 1.8 | 1.9 | 
O=c1c(O)c(-c2cc(O)c(O)c(O)c2)oc2cc(O)cc(O)c12 [Myricetin] | 1.7 | 1.6 | 
O=C(O[C@@H]1Cc2c(O)cc(O)cc2O[C@H]1c1ccc(O)c(O)c1)c1cc(O)c(O)c(O)c1 [(−) CG] | 1.2 | 1.6 | 
Oc1cc(O)c2c(c1)O[C@H](c1cc(O)c(O)c(O)c1)[C@H](O)C2 [(−) EGC] | 1.3 | 1.0 | 
